Experimental data published in patent US10409869B2, “(R)- and (S)-1-(3-(3-N,N-dimethylaminocarbonyl)phenoxyl-4-nitrophenyl)-1-ethyl-N,N'-bis (ethylene)phosphoramidate, compositions and methods for their use and preparation” (OBI Pharma, Inc., priority 2015, dated 2019).

Legend:
[1] = Body weight in monkeys, 2 mg/kg 30-min IV infusion; type: in vivo, Cynomolgus monkeys
Description: (§1) TH 3423 and TH 3424 were tested in […] naïve monkeys (1 male and one female for each compound at 2 mg/kg) with 30-min intravenous infusion, TK sampling: on Day 1 and Day 15: 0.25, 0.5, 0.75, 1 and 2 hr post infusion initiation. Serum chemistry and hematology: pre-dose (Day 1), day 5, day 8 (pre-dose), day 15 (pre-dose), day 22 and day 28. Clinical observation: Daily during the study, total 35 days. Food consumption: Daily during the study, total 35 days. Bodyweight measurement: Twice weekly for five weeks.

[2] = Serum chemistry in monkeys, 2 mg/kg 30-min IV infusion; type: in vivo, Cynomolgus monkeys
Description: as §1

C[C@H](OP(=O)(N1CC1)N1CC1)c1ccc([N+](=O)[O-])c(Oc2cccc(C(=O)N(C)C)c2)c1 (single isomer, unassigned) [TH3424] showed a body weight ([1]; Day 1, male) of 3.40, a body weight ([1]; Day 4, male) of 3.30 and a body weight ([1]; Day 8, Mean) of 3.20. For the same compound, the A/G ([2]; female, Day 1 (pre-dose)) was 1.9, the ALB ([2]; female, Day 1 (pre-dose)) was 46.1 g/L and the ALP ([2]; female, Day 1 (pre-dose)) was 134.2 U/L. The ALT ([2]; female, Day 1 (pre-dose)) was 61.6 U/L, the AST ([2]; female, Day 1 (pre-dose)) was 23.7 U/L and the BUN ([2]; female, Day 1 (pre-dose)) was 3.43 mM. It also gave a CK ([2]; female, Day 1 (pre-dose)) of 202 U/L, a CREA ([2]; female, Day 1 (pre-dose)) of 61 µM and a Ca ([2]; female, Day 1 (pre-dose)) of 2.51 mmol/L. It also gave a GLB ([2]; female, Day 1 (pre-dose)) of 24.1 g/L, a Glu ([2]; female, Day 1 (pre-dose)) of 3.34 mM and a K ([2]; female, Day 1 (pre-dose)) of 5.77 mmol/L. It also gave a Na ([2]; female, Day 1 (pre-dose)) of 143 mmol/L, a TBIL ([2]; female, Day 1 (pre-dose)) of 1.5 µM and a TC ([2]; female, Day 1 (pre-dose)) of 3.04 mM. For the same compound, the TG ([2]; female, Day 1 (pre-dose)) was 0.17 mmol/L, the TP ([2]; female, Day 1 (pre-dose)) was 70.2 g/L and the γ-GT ([2]; female, Day 1 (pre-dose)) was 47.3 U/L. It also gave an A/G ([2]; female, Day 8 (pre-dose)) of 1.4, an ALB ([2]; female, Day 8 (pre-dose)) of 41.8 g/L and an ALP ([2]; female, Day 8 (pre-dose)) of 200.2 U/L. It also gave an ALT ([2]; female, Day 8 (pre-dose)) of 37.7 U/L, an AST ([2]; female, Day 8 (pre-dose)) of 43.1 U/L and a BUN ([2]; female, Day 8 (pre-dose)) of 5.63 mM. For the same compound, the CK ([2]; female, Day 8 (pre-dose)) was 190 U/L, the CREA ([2]; female, Day 8 (pre-dose)) was 88 µM and the Ca ([2]; female, Day 8 (pre-dose)) was 2.37 mmol/L. For the same compound, the GLB ([2]; female, Day 8 (pre-dose)) was 30.6 g/L, the Glu ([2]; female, Day 8 (pre-dose)) was 5.91 mM and the K ([2]; female, Day 8 (pre-dose)) was 4.33 mmol/L. It also gave a Na ([2]; female, Day 8 (pre-dose)) of 143 mmol/L, a TBIL ([2]; female, Day 8 (pre-dose)) of 0.8 µM and a TC ([2]; female, Day 8 (pre-dose)) of 2.91 mM. It also gave a TG ([2]; female, Day 8 (pre-dose)) of 0.63 mmol/L, a TP ([2]; female, Day 8 (pre-dose)) of 72.4 g/L and a γ-GT ([2]; female, Day 8 (pre-dose)) of 36.2 U/L. It also gave an A/G ([2]; female, Day 15 (pre-dose)) of 1.6, an ALB ([2]; female, Day 15 (pre-dose)) of 38.5 g/L and an ALP ([2]; female, Day 15 (pre-dose)) of 151.5 U/L. For the same compound, the ALT ([2]; female, Day 15 (pre-dose)) was 31.9 U/L, the AST ([2]; female, Day 15 (pre-dose)) was 23.8 U/L and the BUN ([2]; female, Day 15 (pre-dose)) was 3.87 mM. For the same compound, the CK ([2]; female, Day 15 (pre-dose)) was 78 U/L, the CREA ([2]; female, Day 15 (pre-dose)) was 46 µM and the Ca ([2]; female, Day 15 (pre-dose)) was 2.2 mmol/L. It also gave a GLB ([2]; female, Day 15 (pre-dose)) of 23.8 g/L, a Glu ([2]; female, Day 15 (pre-dose)) of 2.8 mM and a K ([2]; female, Day 15 (pre-dose)) of 5.58 mmol/L. It also gave a Na ([2]; female, Day 15 (pre-dose)) of 132.59 mmol/L, a TBIL ([2]; female, Day 15 (pre-dose)) of 4.0 µM and a TC ([2]; female, Day 15 (pre-dose)) of 2.23 mM. For the same compound, the TG ([2]; female, Day 15 (pre-dose)) was 0.94 mmol/L, the TP ([2]; female, Day 15 (pre-dose)) was 62.3 g/L and the γ-GT ([2]; female, Day 15 (pre-dose)) was 34.2 U/L. It also gave an A/G ([2]; male, Day 1 (pre-dose)) of 2.5, an ALB ([2]; male, Day 1 (pre-dose)) of 50.5 g/L and an ALP ([2]; male, Day 1 (pre-dose)) of 287.5 U/L. It also gave an ALT ([2]; male, Day 1 (pre-dose)) of 43.0 U/L, an AST ([2]; male, Day 1 (pre-dose)) of 40.2 U/L and a BUN ([2]; male, Day 1 (pre-dose)) of 4.89 mM. The CK ([2]; male, Day 1 (pre-dose)) was 221 U/L, the CREA ([2]; male, Day 1 (pre-dose)) was 91 µM and the Ca ([2]; male, Day 1 (pre-dose)) was 2.38 mmol/L. For the same compound, the GLB ([2]; male, Day 1 (pre-dose)) was 19.9 g/L, the Glu ([2]; male, Day 1 (pre-dose)) was 4.5 mM and the K ([2]; male, Day 1 (pre-dose)) was 4.31 mmol/L. For the same compound, the Na ([2]; male, Day 1 (pre-dose)) was 147 mmol/L, the TBIL ([2]; male, Day 1 (pre-dose)) was 2.1 µM and the TC ([2]; male, Day 1 (pre-dose)) was 3.22 mM. The TG ([2]; male, Day 1 (pre-dose)) was 0.38 mmol/L, the TP ([2]; male, Day 1 (pre-dose)) was 70.4 g/L and the γ-GT ([2]; male, Day 1 (pre-dose)) was 62.2 U/L. For the same compound, the A/G ([2]; male, Day 8 (pre-dose)) was 2.0, the ALB ([2]; male, Day 8 (pre-dose)) was 43.3 g/L and the ALP ([2]; male, Day 8 (pre-dose)) was 225.2 U/L. It also gave an ALT ([2]; male, Day 8 (pre-dose)) of 31.2 U/L, an AST ([2]; male, Day 8 (pre-dose)) of 31.2 U/L and a BUN ([2]; male, Day 8 (pre-dose)) of 4.8 mM. The CK ([2]; male, Day 8 (pre-dose)) was 83 U/L, the CREA ([2]; male, Day 8 (pre-dose)) was 96 µM and the Ca ([2]; male, Day 8 (pre-dose)) was 2.33 mmol/L. For the same compound, the GLB ([2]; male, Day 8 (pre-dose)) was 21.8 g/L, the Glu ([2]; male, Day 8 (pre-dose)) was 4.15 mM and the K ([2]; male, Day 8 (pre-dose)) was 4.51 mmol/L. It also gave a Na ([2]; male, Day 8 (pre-dose)) of 147 mmol/L, a TBIL ([2]; male, Day 8 (pre-dose)) of 3.6 µM and a TC ([2]; male, Day 8 (pre-dose)) of 3.06 mM. It also gave a TG ([2]; male, Day 8 (pre-dose)) of 0.66 mmol/L, a TP ([2]; male, Day 8 (pre-dose)) of 65.1 g/L and a γ-GT ([2]; male, Day 8 (pre-dose)) of 44.9 U/L. The A/G ([2]; male, Day 15 (pre-dose)) was 2.2, the ALB ([2]; male, Day 15 (pre-dose)) was 36.8 g/L and the ALP ([2]; male, Day 15 (pre-dose)) was 174.8 U/L. It also gave an ALT ([2]; male, Day 15 (pre-dose)) of 45.0 U/L, an AST ([2]; male, Day 15 (pre-dose)) of 73.5 U/L and a BUN ([2]; male, Day 15 (pre-dose)) of 9.66 mM. It also gave a CK ([2]; male, Day 15 (pre-dose)) of 172 U/L, a CREA ([2]; male, Day 15 (pre-dose)) of 58 µM and a Ca ([2]; male, Day 15 (pre-dose)) of 2.14 mmol/L. It also gave a GLB ([2]; male, Day 15 (pre-dose)) of 16.4 g/L, a Glu ([2]; male, Day 15 (pre-dose)) of 1.47 mM and a K ([2]; male, Day 15 (pre-dose)) of 6.05 mmol/L. It also gave a Na ([2]; male, Day 15 (pre-dose)) of 136.14 mmol/L, a TBIL ([2]; male, Day 15 (pre-dose)) of 2.1 µM and a TC ([2]; male, Day 15 (pre-dose)) of 1.44 mM. It also gave a TG ([2]; male, Day 15 (pre-dose)) of 0.41 mmol/L, a TP ([2]; male, Day 15 (pre-dose)) of 53.2 g/L and a γ-GT ([2]; male, Day 15 (pre-dose)) of 36.7 U/L.
